Laboratory results: patent US20150366877A1, “METHODS OF TREATMENT OF HUMAN CYTOMEGALOVIRUS INFECTION AND DISEASES WITH BROMODOMAIN INHIBITORS” (Washington University, priority 2013, published 2015)
Like-named read-outs stand apart in the source and are kept apart here.

Legend:
[1] = system: HCMV clinical strain FIX-GFP; assay: TCID50 assay of culture supernatant (release of viral particles), FIX-GFP; assay type: cell-based, Human cytomegalovirus; conditions: Human betaherpesvirus 5
Procedure: (§1) In these experiments, the inventors used TCID50 assays to quantify the IC50 of (+)-JQ-1 in both HCMV laboratory-adapted and clinical strains (FIG. 9; Table 5). HFFs were infected with laboratory strain. AD169-GFP or laboratory strains FIXGFP & Toledo at an MOI of 3 in the presence of (+)-JQ-1 at the range of 0-2,000 nM. Culture media were changed every 24 hrs to maintain the concentration of JQ1. At 5 dpi, viral titers were determined by TCID50.

HCMV [2] = assay: Administration to a patient infected with HCMV (HCMV titers); assay type: in vivo, Human cytomegalovirus
Procedure: A patient is infected with HCMV. A health practitioner administers an amount calculated to provide 1 μM of the bromodomain inhibitor GSK525762A by intraperitoneal injection. The patient's HCMV titers decrease.

[3] = system: HCMV laboratory strain AD169-GFP; assay: Time of addition assay on HCMV replication (GFP units); assay type: cell-based, Human cytomegalovirus; conditions: fixed concentration ~6.5×IC50, added at indicated hpi, GFP units after 7 days
[4] = system: HCMV laboratory strain AD169-GFP; assay: TCID50 assay of culture supernatant (release of viral particles), AD169-GFP; assay type: cell-based, Human cytomegalovirus; conditions: Human betaherpesvirus 5, AD169
Procedure: as §1

HCMV, strain AD169 = assay: TCID50 assay of viral progeny in culture media, AD169-infected HFFs; assay type: cell-based, Human cytomegalovirus; conditions: for reduction of viral titer: 125 nM; for IC50: Human betaherpesvirus 5, AD169, 120 h
Procedure: In this experiment, the inventors used TCID50 assays to determine the amounts of infectious viral particle in culture supernatants release from HCMV-infected cells, HFFs were infected with HCMV, strain AD169, at an MOI of 3 in the presence of different concentrations of JQ1. Culture media was changed every 24 hours to maintain the concentration of JQ1. At 5 (FIG. 2A) and 6 (FIG. 2B) days post infection (DPI), infected culture media was collected and titers of viral progeny in media was determined by TCID50 assay as described by Perng et al., 2011. The detection limit is indicated by the dashed line. (FIG. 2)
HFFs were infected with HCMV, strain AD 169, at an MOI of 3 in the presence of JQ1 at the range of 0-2000 nM. Culture media was changed every 24 hours to maintain the concentration of JQ1. At 5 days post infection, viral titers were determined by TCID50. […] These calculated IC50 values are much lower than published values used in the treatment of cancer.

[5] = system: HCMV clinical strain Toledo; assay: TCID50 assay of culture supernatant (release of viral particles), Toledo; assay type: cell-based, Human cytomegalovirus; conditions: Human betaherpesvirus 5, MOI 3, 5 dpi
Procedure: as §1

[6] = system: HCMV laboratory strain AD169-GFP; assay: microbe, parasite or virus in culture; assay type: cell-based, Human cytomegalovirus; conditions: Human betaherpesvirus 5, AD169, HFF
Procedure: (§2) Drug effects were calculated as a percentage of reduction in GFPU in the presence of each drug concentration comported to the GFPU determined in the absence of drug. The dose-response curves were calculated using the GraphPad Prism 6 (GraphPad Software, USA),
(§3) In these experiments, the inventors determined the IC50 and IC90 values of respective BET bromodomain inhibitors against HCMV infection using fluorescence reduction assay (FIG. 9; Table 3) s.

[7] = system: HCMV clinical strain TR-GFP; assay: microbe, parasite or virus in culture; assay type: cell-based, Human cytomegalovirus; conditions: Human betaherpesvirus 5, HFF
Procedure: as §2, §3

[8] = system: HCMV late proteins (pp71, pp150 and pp28); assay: Immunoblot analysis of HCMV proteins in infected HFFs; assay type: cell-based, Human cytomegalovirus; conditions: MOI 3, different concentrations, 24, 48 and 72 hours post infection
Procedure: The method is as described by Perng et al. 2011. HFFs were infected with HCMV, strain AD169, at an MOI of 3 in the presence of different concentrations of JQ1. Culture media was changed every 24 hours to maintain the concentration of JQ1. Cells were harvested at 24, 48 and 72 hours post infection, HCMV proteins, immediate-early protein (IE1), early protein (UL69), and late proteins (pp71, pp150 and pp28) were determined by immunoblot analysis. (FIG. 4)

[9] = system: fatty acid synthase (FASN) and solute carrier family 38 member 5 (SLC38A5); assay: RNA-seq differential expression of FASN and SLC38A5 in HCMV-infected HFF; assay type: cell-based, human; conditions: 250 uM, MOI 3, 48 hpi
Procedure: HFF cells were mock-infected or HCMV infected with laboratory strain AD169-GFP at a MOI of 3. (FIG. 12A) HFF cells were infected with AD169-GFP at a MOI of 3 in the presence or absence of […] (+)-JQ-1. (FIG. 12B) Cells from both (A) and (B) were harvested at 48 hpi and the total RNA was extracted using a column-based RNA purification kit (Qiagen). RNA integrity was evaluated with a Nano-drop spectrometer (NanoDrop, Wilmington, Del.). Messenger RNA purification, fragmentation, construction of sequencing library and sequencing were performed. The differential expression profiles of two c-Myc inducible genes, fatty acid synthase (FASN) and solute carrier family 38 member 5 (SLC38A5), were determined using an EdgeR procedure.

HCMV AD169 strain = assay type: cell-based, Human cytomegalovirus
[10] = system: HCMV, strain AD169 infected human foreskin fibroblasts; assay: Phase-contrast/fluorescence microscopy of HCMV-infected HFF (cytomegaly morphology); assay type: cell-based, Human cytomegalovirus; conditions: 500 nm
Procedure: In these experiments, human foreskin fibroblasts (HFF) were infected with HCMV, strain AD169, at a multiplicity of infection (MOI) of 3 in the presence or absence of JQ1 […]. Culture media was changed every 24 hours to maintain the concentration of JQ1. Infected cells were examined by phase-contrast or fluorescence microscopy at 72 or 96 hours post infection (hpi). “Cytomegalic” cells appear larger in size with a characteristic intranuclear, homogenous, eosinophilic inclusion which can occupy the entire nucleus of the cell.

[11] = system: HCMV clinical strain TR-GFP; assay type: cell-based, Human cytomegalovirus
HCMV [12] = assay: Anti-HCMV activity in cultured primary human fibroblasts; assay type: cell-based, Human cytomegalovirus

Cc1sc2c(c1C)C(c1ccc(Cl)cc1)=N[C@@H](CC(=O)OC(C)(C)C)c1nnc(C)n1-2 [(+)-JQ1, 4-(4-chlorophenyl)-2,3,9-trimethyl-1,1-dimethylethyl ester-6H-thieno[3,2-f][1,2,4]triazolo[4,3-}{1,4}diazepine-6S-acetic acid]
IC50 [1]: 18 nM | IC90 [1]: 31 nM | patient's HCMV titers (HCMV [2]; therapeutically effective amount, intraperitoneal injection): decrease | effect of the time of addition on HCMV replication [3]: block HCMV infections regardless of times post infection | IC50 [4]: 18 nM | IC90 [4]: 49 nM | reduction of viral titer (HCMV, strain AD169; 5 days post infection): approximately 1000 fold | reduction of viral titer (HCMV, strain AD169; 6 days post infection): greater than 1000 fold | viral titer (HCMV, strain AD169; 250 nM, 5 days post infection): further reduced the viral titer | viral titer (HCMV, strain AD169; 250 nM, 6 days post infection): undetectable | viral titer (HCMV, strain AD169; 500 nM, 5 days post infection): undetectable | viral titer (HCMV, strain AD169; 500 nM, 6 days post infection): undetectable | IC50 (HCMV, strain AD169; read-out: IC50 (50% viral replication inhibitory concentration), AD169, MOI 3, 5 days post infection, calculated using four parameters): 21.6 nM | IC50 (HCMV, strain AD169; read-out: IC50 (50% viral replication inhibitory concentration), AD169, MOI 3, 5 days post infection, calculated using three parameters): 17.8 nM | IC50 [5]: 22 nM | IC90 [5]: 37 nM | IC50 [6]: 77 nM | IC90 [6]: 210 nM | IC50 [7]: 39 nM | IC90 [7]: 93 nM | accumulation of HCMV late proteins [8]: modestly inhibits | up-regulation of FASN and SLC38A5 by HCMV infection [9]: up-regulation is reversed | production of infectious viral particles (electron micrographs) (HCMV AD169 strain): blocks the production of infectious viral particles | morphology of infected HFF cells ([10]; MOI 3, 72 hours post infection): lost the “cytomegalic” morphology and an accumulation of dead cells was present | morphology of infected HFF cells ([10]; MOI 3, 96 hours post infection): lost the “cytomegalic” morphology and a greater accumulation of floating dead cells were present | production of infectious viral particles (EM analysis) [11]: blocks the production of infectious viral particles

COc1cc2c(cc1-c1c(C)noc1C)ncc1[nH]c(=O)n(C(C)c3ccccn3)c12 (stereo in doubt) [I-BET151, 7-(3,5-Dimethyl-1,2-oxazol-4-yl)-8-methoxy-1-[(1R)-1-(2-pyridinyl)ethyl]-1,3-dihydro-2H-imidazo[4,5-c]quinolin-2-one]
patient's HCMV titers (HCMV [2]; amount calculated to provide 0.5 μM, intraperitoneal injection): decrease | IC50 [6]: 160 nM | IC90 [6]: 550 nM | IC50 [7]: 110 nM | IC90 [7]: 160 nM | Concentration to inhibit HCMV replication (HCMV [12]): 0.391 to 0.781 µM

Cc1sc2c(c1C)C(c1ccc(Cl)cc1)=N[C@@H](CC(=O)Nc1ccc(O)cc1)c1nnc(C)n1-2 [OTX-015, (S)-2-[4-(4-chlorophenyl)-2,3,9-trimethyl-6H-thieno [3,2-f][1,2,4]triazolo-[4,3-a][1,4]diazepin-6-yl]-N-(4-hydroxyphenyl)acetamide]
patient's HCMV titers (HCMV [2]; therapeutically effective amount, oral administration): decrease | effect of the time of addition on HCMV replication [3]: block HCMV infections regardless of times post infection | IC50 [6]: 69 nM | IC90 [6]: 210 nM | IC50 [7]: 29 nM | IC90 [7]: 85 nM

Nc1ccn(C[C@@H](CO)OCP(=O)(O)O)c(=O)n1 [Cidofovir]
IC50 [6]: 150 nM | IC90 [6]: 1080 nM

COc1cc(OC)c2c(=O)[nH]c(-c3cc(C)c(OCCO)c(C)c3)nc2c1 [RVX-208, 2-[4-(2-hydroxyethoxy)-3,5-dimethyl-phenyl]-5,7-dimethoxy-3H-quinazolin-4-one]
patient's HCMV titers (HCMV [2]; amount calculated to provide 19 μM, intraperitoneal injection): decrease | IC50 [6]: 7930 nM | IC90 [6]: 31100 nM | IC50 [7]: 3160 nM | IC90 [7]: 6670 nM | Concentration to inhibit HCMV replication (HCMV [12]): 14.063 to 28.125 µM

CCNC(=O)C[C@@H]1N=C(c2ccc(Cl)cc2)c2cc(OC)ccc2-n2c(C)nnc21 [I-BET762, 2-[(4S)-6-(4-chlorophenyl)-8-methoxy-1-methyl-4H-[1,2,4]triazolo[4,3-a][1,4]benzodiazepine-4-yl]-N-ethylacetamide]
patient's HCMV titers (HCMV [2]; amount calculated to provide 1 μM, intraperitoneal injection): decrease | effect of the time of addition on HCMV replication [3]: block HCMV infections regardless of times post infection

COc1ccccc1S(=O)(=O)Nc1ccc2c(c1)CN(C)C(=O)N2 [PFI-1, 2-Methoxy-N-(3-methyl-2-oxo-1,2,3,4-tetrahydro-6-quinazolinyl)benzenesulfonamide]
IC50 [6]: 790 nM | IC90 [6]: 2560 nM | IC50 [7]: 420 nM | IC90 [7]: 1220 nM

Cc1sc2c(c1C)C(c1ccc(Cl)cc1)=N[C@@H](CC(N)=O)c1nnc(C)n1-2 [CPI-203, (S)-2-(4-(4-chlorophenyl)-2,3,9-trimethyl-6H-thieno [3,2-f][1,2,4]triazolo[4,3-a][1,4]diazepin-6-yl)acetamide]
IC50 [6]: 40 nM | IC90 [6]: 140 nM

CCOC(=O)Nc1cc(-c2ccc(C)c(NS(C)(=O)=O)c2)nn2c(C)nnc12 [Bromosporine, N-[6-(3-methanesulfonamido-4-methylphenyl)-3-methyl-[1,2,4]triazolo[4,3-b]pyridazin-8-yl]carbamate]
IC50 [6]: 290 nM | IC90 [6]: 640 nM

Nc1nc(O)c2ncn(COC(CO)CO)c2n1 [Ganciclovir]
IC50 [6]: 1780 nM | IC90 [6]: 25000 nM

COc1cccc(N2CCN(C3=Nc4c(F)cccc4[C@H](CC(=O)O)N3c3cc(C(F)(F)F)ccc3OC)CC2)c1 [Letermovir]
effect of the time of addition on HCMV replication [3]: cannot control the viral infection after 48 hours post-infection | IC50 [6]: 4.1 nM | IC90 [6]: 5.8 nM
